Test results from patent publication US20230270745A1 (Seagen Inc., priority 2020, published 2023).

Key:
[1] = test system: GXA 3039 HER2 positive gastric cancer PDX model; assay: GXA 3039 gastric cancer PDX model, tumor growth inhibition; format: in vivo, Mice; conditions: study day 29; tucatinib 50 mg/kg orally twice per day, trastuzumab 20 mg/kg intraperitoneally once every three days
Procedure: (§1) The TGI index is calculated for a particular time point (e.g., a specific number of days into an experiment or clinical trial) according to the following formula: […]
(§2) where “Tx Day 0” denotes the first day that treatment is administered (i.e., the first day that an experimental therapy or a control therapy (e.g., vehicle only) is administered) and “Tx Day X” denotes X number of days after Day 0. […] As a non-limiting example, in an experiment where study day 0 corresponds to “Tx Day 0” and the TGI index is calculated on study day 28 (i.e., “Tx Day 28”), if the mean tumor volume in both groups on study day 0 is 250 mm^3 and the mean tumor volumes in the experimental and control groups are 125 mm^3 and 750 mm^3, respectively, then the TGI index on day 28 is 125%.
(§3) Tucatinib was administered orally at a dose of 50 mg/kg twice per day for 28 days (study days 0-27). […] A vehicle-only group was included as a negative control.

[2] = test system: CTG-0383 HER2 positive CRC PDX model; assay: CTG-0383 CRC PDX model, tumor growth inhibition; format: in vivo, Mice; conditions: study day 29; tucatinib 50 mg/kg orally twice per day, trastuzumab 20 mg/kg intraperitoneally once every three days
Procedure: as §1, §2, §3

[3] = test system: Calu-3 cells; assay: Response of Calu-3 cells to tucatinib in vitro; format: cell-based; conditions: previously demonstrated
[4] = test system: GXA 3038 HER2 positive gastric cancer PDX model; assay: GXA 3038 gastric cancer PDX model, tumor growth inhibition; format: in vivo, Mice; conditions: study day 28; tucatinib 50 mg/kg orally twice per day, trastuzumab 20 mg/kg intraperitoneally once every three days
Procedure: as §1, §2, §3

[5] = test system: CTG-0121 HER2 positive CRC PDX model; assay: CTG-0121 CRC PDX model, tumor growth inhibition; format: in vivo, Mice; conditions: study day 29; tucatinib 50 mg/kg orally twice per day, trastuzumab 20 mg/kg intraperitoneally once every three days
Procedure: as §1, §2, §3

[6] = test system: CTG-0784 HER2 positive CRC PDX model; assay: CTG-0784 CRC PDX model, tumor growth inhibition; format: in vivo, Mice; conditions: study day 29; tucatinib 50 mg/kg orally twice per day, trastuzumab 20 mg/kg intraperitoneally once every three days
Procedure: as §1, §2, §3

[7] = test system: Calu-3 NSCLC xenograft model; assay: Calu-3 NSCLC xenograft model, tumor growth inhibition; format: in vivo, Mice; conditions: study day 28; tucatinib 50 mg/kg orally twice per day for 21 days, trastuzumab 20 mg/kg intraperitoneally once every three days, from study day 7
Procedure: as §1, §2
(§4) For the Calu-3 study, tucatinib was administered orally at a dose of 50 mg/kg twice per day for 21 days, beginning on study day 7. […] A vehicle-only group was included as a negative control.

[8] = test system: NCI-H2170 NSCLC xenograft model; assay: NCI-H2170 NSCLC xenograft model, tumor growth inhibition; format: in vivo, Mice; conditions: study day 39; tucatinib 50 mg/kg orally twice per day for 21 days, trastuzumab 20 mg/kg intraperitoneally twice per week, from study day 18
Procedure: as §1, §2, §4
For the NCI-H2170 study, tucatinib was administered orally at a dose of 50 mg/kg twice per day for 21 days, beginning on study day 18. […] A vehicle-only group was included as a negative control.

[9] = test system: CTG-0137 HER2 positive esophageal cancer PDX model; assay: CTG-0137 esophageal cancer PDX model, tumor growth inhibition; format: in vivo, Mice; conditions: study day 15; tucatinib 50 mg/kg orally twice per day, trastuzumab 20 mg/kg intraperitoneally once every three days
Procedure: as §1, §2, §3

[10] = test system: GXA 3054 HER2 positive gastric cancer PDX model; assay: GXA 3054 gastric cancer PDX model, tumor growth inhibition; format: in vivo, Mice; conditions: study day 17; tucatinib 50 mg/kg orally twice per day, trastuzumab 20 mg/kg intraperitoneally once every three days
Procedure: as §1, §2, §3

[11] = test system: NCI-H2170 cells; assay: Response of NCI-H2170 cells to tucatinib in vitro; format: cell-based; conditions: previously demonstrated
[12] = test system: CTG-0927 HER2 positive cholangiocarcinoma PDX model; assay: CTG-0927 cholangiocarcinoma PDX model, tumor growth inhibition; format: in vivo, Mice; conditions: study day 28; tucatinib 50 mg/kg orally twice per day, trastuzumab 20 mg/kg intraperitoneally once every three days
Procedure: as §1, §2, §3

[13] = test system: CTG-0138 HER2 positive esophageal cancer PDX model; assay: CTG-0138 esophageal cancer PDX model, tumor growth inhibition; format: in vivo, Mice; conditions: study day 30; tucatinib 50 mg/kg orally twice per day, trastuzumab 20 mg/kg intraperitoneally once every three days
Procedure: as §1, §2, §3

Cc1cc(Nc2ncnc3ccc(NC4=NC(C)(C)CO4)cc23)ccc1Oc1ccn2ncnc2c1 [Tucatinib, tucatinib]
Observed TGI (tumor growth inhibition index) [1]: 48%
Observed TGI (tumor growth inhibition index) [2]: 117%
Response to tucatinib in vitro [3]: good responses
Observed TGI (tumor growth inhibition index) [4]: 110%
Observed TGI (tumor growth inhibition index) [5]: 104%
Observed TGI (tumor growth inhibition index) [6]: 50%
Observed TGI (tumor growth inhibition index) [7]: 63%
Observed TGI (tumor growth inhibition index) [8]: 91%
Observed TGI (tumor growth inhibition index) [9]: 49%
Observed TGI (tumor growth inhibition index) [10]: 65%
Response to tucatinib in vitro [11]: good responses
Observed TGI (tumor growth inhibition index) [12]: 48%
Observed TGI (tumor growth inhibition index) [13]: 69%
